Several values for one entry are separate records, joined by “and”; a condition that tells them apart may be missing. Equal entries are not always repeated. Toxic doses and inconclusive results are not listed.
Test system: CD2F1 mice, L1210 leukemia ip, survival T/C
Assay: NCI In Vivo Anticancer Drug Screen. Data for tumor model L1210 Leukemia (intraperitoneal) in CD2F1 (CDF1) mice
Conditions: higher = longer survival
Procedure, shortened: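 Implant tumor; dose compound or vehicle; measure endpoint in both groups; report treated divided by control.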

[1] = endpoint: mean survival time, dose: 100.0 mg/kg/injection, schedule: Q04DX003 (ip), vehicle: saline with Tween-80
[2] = endpoint: mean survival time, dose: 200.0 mg/kg/injection, schedule: Q04DX003 (ip), vehicle: saline with Tween-80
[3] = endpoint: mean survival time, dose: 400.0 mg/kg/injection, schedule: Q04DX003 (ip), vehicle: saline with Tween-80
[4] = endpoint: mean survival time, dose: 6.25 mg/kg/injection, schedule: Q01DX009 (ip), vehicle: saline with Tween-80
[5] = endpoint: mean survival time, dose: 12.5 mg/kg/injection, schedule: Q01DX009 (ip), vehicle: saline with Tween-80
[6] = endpoint: mean survival time, dose: 100.0 mg/kg/injection, schedule: Q01DX001 (ip), vehicle: saline with Tween-80
[7] = endpoint: mean survival time, dose: 200.0 mg/kg/injection, schedule: Q01DX001 (ip), vehicle: saline with Tween-80
[8] = endpoint: mean survival time, dose: 400.0 mg/kg/injection, schedule: Q01DX001 (ip), vehicle: saline with Tween-80

SMILES: O=C1OCC/C1=C\c1cccc2ccccc12
- T/C [1]: 102 % of control
- T/C [2]: 96 % of control
- T/C [3]: 97 % of control

SMILES: O=C1CSC(=O)N1
- T/C [1]: 94 % of control
- T/C [2]: 93 % of control
- T/C [3]: 92 % of control

SMILES: CC(=O)OCC1OC(n2ncc(=O)[nH]c2=O)C(OC(C)=O)C1OC(C)=O (centres undefined)
- T/C (endpoint: mean survival time, dose: 12.5 mg/kg/injection, schedule: Q03HX024 (ip), vehicle: saline): 112 % of control
- T/C (endpoint: mean survival time, dose: 25.0 mg/kg/injection, schedule: Q03HX024 (ip), vehicle: saline): 116 % of control
- T/C (endpoint: mean survival time, dose: 50.0 mg/kg/injection, schedule: Q03HX024 (ip), vehicle: saline): 106 % of control
- T/C (endpoint: mean survival time, dose: 100.0 mg/kg/injection, schedule: Q01DX001 (ip), vehicle: saline): 106 % of control
- T/C (endpoint: mean survival time, dose: 200.0 mg/kg/injection, schedule: Q01DX001 (ip), vehicle: saline): 103 % of control
- T/C (endpoint: mean survival time, dose: 400.0 mg/kg/injection, schedule: Q01DX001 (ip), vehicle: saline): 106 % of control
- T/C (endpoint: mean survival time, dose: 400.0 mg/kg/injection, schedule: Q01DX009 (ip), vehicle: saline): 108 % of control
- T/C (endpoint: mean survival time, dose: 800.0 mg/kg/injection, schedule: Q01DX001 (ip), vehicle: saline): 117 % of control
- T/C (endpoint: mean survival time, dose: 800.0 mg/kg/injection, schedule: Q01DX009 (ip), vehicle: saline): 93 % of control

SMILES: Cc1cc(NCCN(C(C)C)C(C)C)nc(Nc2nc3ccc(Cl)cc3[nH]2)n1
- T/C (endpoint: mean survival time, dose: 0.75 mg/kg/injection, schedule: Q01DX009 (ip), vehicle: saline with Tween-80): 103 % of control
- T/C (endpoint: mean survival time, dose: 1.5 mg/kg/injection, schedule: Q01DX009 (ip), vehicle: saline with Tween-80): 90 % of control
- T/C (endpoint: mean survival time, dose: 3.0 mg/kg/injection, schedule: Q01DX009 (ip), vehicle: saline with Tween-80): 106 % of control
- T/C [4]: 92 % of control
- T/C [5]: 92 % of control
- T/C [6]: 96 % of control
- T/C [7]: 96 % of control
- T/C [8]: 98 % of control

SMILES: Nc1ncnc2c1ncn2[C@@H](C=O)O[C@@H](C=O)CO
- T/C (endpoint: mean survival time, dose: 3.12 mg/kg/injection, schedule: Q01DX009 (ip), vehicle: saline with Tween-80): 164 % of control
- T/C (endpoint: mean survival time, dose: 3.13 mg/kg/injection, schedule: Q01DX005 (ip), vehicle: saline with Tween-80): 152 % of control
- T/C (endpoint: mean survival time, dose: 6.25 mg/kg/injection, schedule: Q01DX005 (ip), vehicle: saline with Tween-80): 180 % of control
- T/C [4]: 176 % of control
- T/C (endpoint: mean survival time, dose: 12.5 mg/kg/injection, schedule: Q01DX005 (ip), vehicle: other): 165 % of control
- T/C (endpoint: mean survival time, dose: 12.5 mg/kg/injection, schedule: Q01DX005 (ip), vehicle: saline with Tween-80): 153 % of control
- T/C [5]: 185 % of control
- T/C (endpoint: mean survival time, dose: 25.0 mg/kg/injection, schedule: Q01DX005 (ip), vehicle: other): 172 % of control
- T/C (endpoint: mean survival time, dose: 25.0 mg/kg/injection, schedule: Q01DX009 (ip), vehicle: saline with Tween-80): 89 % of control

SMILES: c1ccc(CCN2CCCCC2)nc1
- T/C (endpoint: mean survival time, dose: 3.13 mg/kg/injection, schedule: Q04DX003 (ip), vehicle: saline with Tween-80): 93 % of control
- T/C (endpoint: mean survival time, dose: 6.25 mg/kg/injection, schedule: Q04DX003 (ip), vehicle: saline with Tween-80): 93 % of control

SMILES: CC(=O)OC(OC(C)=O)c1ccc([N+](=O)[O-])cc1
- T/C (endpoint: mean survival time, dose: 100.0 mg/kg/injection, schedule: Q01DX009 (ip), vehicle: saline with Tween-80): 103 % of control
- T/C [1]: 105 % of control
- T/C (endpoint: mean survival time, dose: 200.0 mg/kg/injection, schedule: Q01DX009 (ip), vehicle: saline with Tween-80): 97 % of control
- T/C [2]: 100 % of control
- T/C (endpoint: mean survival time, dose: 400.0 mg/kg/injection, schedule: Q01DX009 (ip), vehicle: saline with Tween-80): 97 % of control
- T/C [3]: 92 % of control

SMILES: N#C/C(=C/c1ccc(Cl)cc1)C(N)=O
- T/C (endpoint: mean survival time, dose: 12.5 mg/kg/injection, schedule: Q04DX003 (ip), vehicle: Klucel (hydroxypropylcellulose) (HPC)): 96 % of control and 98 % of control
- T/C (endpoint: mean survival time, dose: 25.0 mg/kg/injection, schedule: Q04DX003 (ip), vehicle: Klucel (hydroxypropylcellulose) (HPC)): 93 % of control and 95 % of control
- T/C (endpoint: mean survival time, dose: 50.0 mg/kg/injection, schedule: Q04DX003 (ip), vehicle: Klucel (hydroxypropylcellulose) (HPC)): 100 % of control and 104 % of control
- T/C [6]: 121 % of control
- T/C (endpoint: mean survival time, dose: 100.0 mg/kg/injection, schedule: Q04DX003 (ip), vehicle: Klucel (hydroxypropylcellulose) (HPC)): 100 % of control and 101 % of control
- T/C [7]: 111 % of control
- T/C [8]: 101 % of control

SMILES: CCCCCCNc1nc(NCCCCCC)c2[nH]c(NCCCCCC)nc2n1
- T/C (endpoint: median survival time, dose: 25.0 mg/kg/injection, schedule: Q01DX009 (ip), vehicle: saline with Tween-80): 107 % of control
- T/C (endpoint: median survival time, dose: 50.0 mg/kg/injection, schedule: Q01DX009 (ip), vehicle: saline with Tween-80): 107 % of control
- T/C (endpoint: median survival time, dose: 100.0 mg/kg/injection, schedule: Q01DX009 (ip), vehicle: saline with Tween-80): 106 % of control
- T/C (endpoint: median survival time, dose: 200.0 mg/kg/injection, schedule: Q01DX009 (ip), vehicle: saline with Tween-80): 105 % of control

SMILES: O=Cc1ccc2ccccc2[n+]1[O-]
- T/C (endpoint: mean survival time, dose: 100.0 mg/kg/injection, schedule: Q04DX003 (ip), vehicle: saline): 101 % of control
- T/C (endpoint: mean survival time, dose: 200.0 mg/kg/injection, schedule: Q04DX003 (ip), vehicle: saline): 100 % of control
- T/C (endpoint: mean survival time, dose: 400.0 mg/kg/injection, schedule: Q04DX003 (ip), vehicle: saline): 101 % of control
